Key:
[1] = biological target: T1, JAK3 (JH1) (Homo sapiens, UniProt P52333); test: JAK3 enzyme assay, HTRF detection; assay type: biochemical
T1 construct: JAK3 (JH1)
Method: (§1) JAK1, JAK2, JAK3, and TYK2 kinase activity assays were performed as described previously using HTRF detection technology and the peptide substrate amino hexanoyl biotin-EQEDEPEGDYFEWLE-NH2. Each reaction was incubated between 60 and 80 min at room temperature. Final conditions were as follows: JAK1, 400 pM enzyme, Hepes pH 7.5, 10 mM MgCl2, 0.01% Brij-35, 1 mM EGTA, 0.1 mg/ml BSA), 2 mM DTT, 2 µM peptide substrate, 25 µM MgATP, 5% DMSO and the desired concentration of subject compound; JAK2, 25 pM enzyme (JH1, JH1–JH2^wt, JH1–JH2^V617F domains), 2 µM peptide substrate, 15 µM MgATP, 5 mM MgCl2, 100 mM NaCl, 2 mM DTT, 0.1 mg/ml BSA, 50 mM Tris (pH 7.4), 5% DMSO and the desired concentration of subject compound; JAK3, 250 pM enzyme, 50 mM Hepes pH 7.5, 10 mM MgCl2, 0.01% Brij-35, 1 mM EGTA, 0.1 mg/ml BSA), 2 mM DTT, 2.0 µM peptide substrate, 25 µM MgATP, 5% DMSO, and the desired concentration of subject compound; TYK2, 125 pM enzyme, 50 mM Hepes pH 7.5, 10 mM MgCl2, 0.01% Brij-35, 1 mM EGTA, 0.1 mg/ml BSA, 2 mM DTT, 2.0 µM peptide substrate, 15 µM MgATP, 5% DMSO and the desired concentration of subject compound.

[2] = biological target: T2, JAK2 (JH1–JH2) WT (Homo sapiens, UniProt O60674); test: JAK2 enzyme assay, HTRF detection; assay type: biochemical; conditions: kinase activity, mean, n = 3, read-out: IC50, cell-free JAK2 (JH1–JH2) WT
T2 construct: JAK2, 25 pM enzyme (JH1, JH1–JH2^wt, JH1–JH2^V617F domains)
T2 sequence (O60674 532-1132 limits assumed): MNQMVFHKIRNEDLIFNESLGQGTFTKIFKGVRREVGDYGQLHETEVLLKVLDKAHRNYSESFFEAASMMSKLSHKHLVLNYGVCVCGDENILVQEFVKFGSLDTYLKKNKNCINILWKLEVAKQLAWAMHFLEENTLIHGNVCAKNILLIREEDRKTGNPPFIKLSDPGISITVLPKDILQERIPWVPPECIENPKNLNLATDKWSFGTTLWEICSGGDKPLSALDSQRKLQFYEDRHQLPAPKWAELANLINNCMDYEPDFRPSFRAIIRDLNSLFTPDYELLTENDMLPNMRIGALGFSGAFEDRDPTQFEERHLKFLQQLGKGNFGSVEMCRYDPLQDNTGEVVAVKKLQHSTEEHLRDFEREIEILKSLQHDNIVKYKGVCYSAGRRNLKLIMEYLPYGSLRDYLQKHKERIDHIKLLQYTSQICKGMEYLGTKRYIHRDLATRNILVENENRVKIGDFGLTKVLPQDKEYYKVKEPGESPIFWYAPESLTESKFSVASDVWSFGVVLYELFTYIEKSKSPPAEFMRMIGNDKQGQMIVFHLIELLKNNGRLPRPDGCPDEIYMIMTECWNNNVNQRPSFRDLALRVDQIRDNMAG
Method: as §1

[3] = biological target: T3, JAK2 (JH1–JH2) V617F (Homo sapiens, UniProt O60674, V617F); test: JAK2 enzyme assay, HTRF detection; assay type: biochemical; conditions: kinase activity, mean, n = 3, read-out: IC50, cell-free JAK2 (JH1–JH2) V617F
T3 construct: JAK2, 25 pM enzyme (JH1, JH1–JH2^wt, JH1–JH2^V617F domains)
T3 sequence (O60674 532-1132 V617F limits assumed): as the sequence (O60674 532-1132 limits assumed) above, with V86F counted along it
Method: as §1

[4] = biological target: T4, JAK2 (JH1) WT (Homo sapiens, UniProt O60674); test: JAK2 enzyme assay, HTRF detection; assay type: biochemical
T4 construct: JAK2, 25 pM enzyme (JH1, JH1–JH2^wt, JH1–JH2^V617F domains)
T4 sequence (O60674 849-1124 limits assumed): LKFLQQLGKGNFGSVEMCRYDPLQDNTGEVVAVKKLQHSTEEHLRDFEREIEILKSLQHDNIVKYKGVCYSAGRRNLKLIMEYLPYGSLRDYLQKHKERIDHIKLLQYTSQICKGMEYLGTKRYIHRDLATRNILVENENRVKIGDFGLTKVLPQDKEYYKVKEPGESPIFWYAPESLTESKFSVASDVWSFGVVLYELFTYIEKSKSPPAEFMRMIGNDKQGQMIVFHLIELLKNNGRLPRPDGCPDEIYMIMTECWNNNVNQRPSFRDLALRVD
Method: as §1

[5] = system: ACK1; test: Kinase profiling (Millipore); assay type: biochemical; conditions: IC50s measured at ATP Km, fold increase relative to JAK2
Method: (§2) Kinase profiling was conducted by Millipore (Billerica, MA).
(§3) Supplementary file pone.0037207.s003.doc: Table S1 Recombinant Kinase Selectivity Profile of MRLB-11055. IC50s measured at ATP Km, and fold increase relative to JAK2 is reported. (DOC) Click here for additional data file.

[6] = system: Bmx; test: Kinase profiling (Millipore); assay type: biochemical; conditions: IC50s measured at ATP Km, fold increase relative to JAK2
Method: as §2, §3

[7] = system: Lyn; test: Kinase profiling (Millipore); assay type: biochemical; conditions: IC50s measured at ATP Km, fold increase relative to JAK2
Method: as §2, §3

[8] = system: Fms; test: Kinase profiling (Millipore); assay type: biochemical; conditions: IC50s measured at ATP Km, fold increase relative to JAK2
Method: as §2, §3

[9] = system: Hck; test: Kinase profiling (Millipore); assay type: biochemical; conditions: IC50s measured at ATP Km, fold increase relative to JAK2
Method: as §2, §3

[10] = system: Fgr; test: Kinase profiling (Millipore); assay type: biochemical; conditions: IC50s measured at ATP Km, fold increase relative to JAK2
Method: as §2, §3

[11] = system: ARK5; test: Kinase profiling (Millipore); assay type: biochemical; conditions: IC50s measured at ATP Km, fold increase relative to JAK2
Method: as §2, §3

[12] = system: TrkA; test: Kinase profiling (Millipore); assay type: biochemical; conditions: IC50s measured at ATP Km, fold increase relative to JAK2
Method: as §2, §3

[13] = system: CaMKIIγ; test: Kinase profiling (Millipore); assay type: biochemical; conditions: IC50s measured at ATP Km, fold increase relative to JAK2
Method: as §2, §3

[14] = system: PTK5; test: Kinase profiling (Millipore); assay type: biochemical; conditions: IC50s measured at ATP Km, fold increase relative to JAK2
Method: as §2, §3

[15] = system: Ret; test: Kinase profiling (Millipore); assay type: biochemical; conditions: IC50s measured at ATP Km, fold increase relative to JAK2
Method: as §2, §3

[16] = system: MLK1; test: Kinase profiling (Millipore); assay type: biochemical; conditions: IC50s measured at ATP Km, fold increase relative to JAK2
Method: as §2, §3

[17] = system: BTK; test: Kinase profiling (Millipore); assay type: biochemical; conditions: IC50s measured at ATP Km, fold increase relative to JAK2
Method: as §2, §3

[18] = system: Flt3; test: Kinase profiling (Millipore); assay type: biochemical; conditions: IC50s measured at ATP Km, fold increase relative to JAK2
Method: as §2, §3

[19] = system: Fyn; test: Kinase profiling (Millipore); assay type: biochemical; conditions: IC50s measured at ATP Km, fold increase relative to JAK2
Method: as §2, §3

[20] = system: TrkB; test: Kinase profiling (Millipore); assay type: biochemical; conditions: IC50s measured at ATP Km, fold increase relative to JAK2
Method: as §2, §3

[21] = system: CaMKIIδ; test: Kinase profiling (Millipore); assay type: biochemical; conditions: IC50s measured at ATP Km, fold increase relative to JAK2
Method: as §2, §3

[22] = system: Yes; test: Kinase profiling (Millipore); assay type: biochemical; conditions: IC50s measured at ATP Km, fold increase relative to JAK2
Method: as §2, §3

[23] = system: Lck; test: Kinase profiling (Millipore); assay type: biochemical; conditions: IC50s measured at ATP Km, fold increase relative to JAK2
Method: as §2, §3

[24] = system: cSRC; test: Kinase profiling (Millipore); assay type: biochemical; conditions: IC50s measured at ATP Km, fold increase relative to JAK2
Method: as §2, §3

[25] = system: Arg; test: Kinase profiling (Millipore); assay type: biochemical; conditions: IC50s measured at ATP Km, fold increase relative to JAK2
Method: as §2, §3

[26] = system: darbepoetin-induced polycythemia and splenomegaly; test: Darbepoetin-induced model of polycythemia; assay type: in vivo, C57BL/6 mice; conditions: 7 days
Method: C57BL/6 mice (Charles River Laboratories, Wilmington, MA) aged 4–6 weeks were dosed with MRLB-11055 in vehicle (10%v/v polysorbate 80) or with vehicle alone. All dosing was done by oral gavage (10 ml/kg body weight/day). Inhibition of darbepoetin-induced polycythemia and splenomegaly by MRLB-11055 was measured as described previously.

[27] = system: pSTAT5 in CTLL-2 cells (JAK1 and JAK3 dependent); test: Cell pSTAT5 AlphaScreen SureFire assay; assay type: cell-based
Method: (§4) Measurement of pSTAT5 in cells was performed essentially as described previously using an AlphaScreen™ SureFire™ (Perkin Elmer) assay. BaF3 (JAK2 WT), BaF3 (JAK2 V617F), and CTLL-2 cells were exposed to compound for 60 min prior to lysis and subsequent detection of pSTAT5 via AlphaScreen technology. Prior to compound treatment, BaF3 (JAK2 WT) and CTLL-2 cells were cytokine starved overnight, with EPO or IL-2 added 15 minutes prior to lysis, respectively.

[28] = system: pSTAT5 in BaF3 (JAK2 WT) cells; test: Cell pSTAT5 AlphaScreen SureFire assay; assay type: cell-based; conditions: Mus musculus, 1 hour, EPO-stimulated
Method: as §4

[29] = system: pSTAT5 in BaF3 (JAK2 V617F) cells; test: Cell pSTAT5 AlphaScreen SureFire assay; assay type: cell-based; conditions: Mus musculus, 1 hour
Method: as §4

T1 sequence (P52333 822-1111 limits assumed, species assumed): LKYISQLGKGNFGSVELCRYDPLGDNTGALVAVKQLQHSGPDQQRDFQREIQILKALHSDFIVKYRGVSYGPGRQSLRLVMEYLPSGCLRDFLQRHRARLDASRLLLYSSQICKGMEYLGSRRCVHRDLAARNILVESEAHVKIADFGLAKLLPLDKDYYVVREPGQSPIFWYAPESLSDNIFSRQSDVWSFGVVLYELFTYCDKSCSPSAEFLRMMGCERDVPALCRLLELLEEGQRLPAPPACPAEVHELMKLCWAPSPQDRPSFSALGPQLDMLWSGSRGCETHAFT

SMILES: NC(=O)c1cnc(N[C@H](C2CC2)C(F)(F)F)c2c1[nH]c1cc(-c3cnc(N)nc3)ccc12 [MRLB-11055]
- IC50 ([1]; HTRF, mean, n = 3, read-out: IC50, cell-free JAK3 (JH1)): 300 nM
- Selectivity for JAK2 over JAK3 ([1]; cell-free assays): > 3000 fold
- IC50 [2]: 0.78 nM
- IC50 [3]: 0.35 nM
- Manner of inhibition of the JH1 kinase domain ([4]; data not shown): ATP-competitive
- IC50 ([4]; kinase activity, HTRF assay, mean, n = 3, read-out: IC50, cell-free JAK2 (JH1) WT): 0.08 nM
- Fold-Shift /JAK2, ACK1 [5]: 2 fold
- Fold-Shift /JAK2, Bmx [6]: 4 fold
- Fold-Shift /JAK2, Lyn [7]: 4 fold
- Fold-Shift /JAK2, Fms [8]: 2 fold
- Fold-Shift /JAK2, Hck [9]: 3 fold
- Fold-Shift /JAK2, Fgr [10]: 5 fold
- Fold-Shift /JAK2, ARK5 [11]: 6 fold
- Fold-Shift /JAK2, TrkA [12]: 1 fold
- Fold-Shift /JAK2, CaMKIIγ [13]: 11 fold
- Fold-Shift /JAK2, PTK5 [14]: 8 fold
- Fold-Shift /JAK2, Ret [15]: 3 fold
- Fold-Shift /JAK2, MLK1 [16]: 18 fold
- Fold-Shift /JAK2, BTK [17]: 7 fold
- Fold-Shift /JAK2, Flt3 [18]: 3 fold
- Fold-Shift /JAK2, Fyn [19]: 2 fold
- Fold-Shift /JAK2, TrkB [20]: 8 fold
- Fold-Shift /JAK2, CaMKIIδ [21]: 10 fold
- Fold-Shift /JAK2, Yes [22]: 7 fold
- Fold-Shift /JAK2, Lck [23]: 5 fold
- Fold-Shift /JAK2, cSRC [24]: 1 fold
- Fold-Shift /JAK2, Arg [25]: 17 fold
- Effect on WBC ([26]; 5, 15, 25 and 40 mpk once daily): dose-dependent trend towards WBC reduction, that did not reach statistical significance
- Efficacy, prevention of elevated hematocrit (Hct) ([26]; 40 mpk orally once daily): 76%
- Efficacy, prevention of elevated spleen weight (SPL) ([26]; 40 mpk orally once daily): 87%
- Times less potent on IL-2 stimulated CTLL-2 pSTAT5 than on JAK2V617F-mediated pSTAT5 in BaF3 cells [27]: 6 times
- IC50 ([27]; Mus musculus, CTLL-2, 1 hour, IL2-stimulated, JAK1 and JAK3 dependent): 66 nM
- IC50 [28]: 23 nM
- IC50 [29]: 11 nM

Source: publication PMC3356383, “Efficacious Intermittent Dosing of a Novel JAK2 Inhibitor in Mouse Models of Polycythemia Vera” (PLoS ONE, 2012)
